According to patent US20100168216A1, “PROSTAGLANDIN PHARMACEUTICAL COMPOSITIONS” (CTG PHARMA S.R.L., priority 2007, published 2010):

How the values were obtained:
[1] = system: Thy-1 mRNA; assay: Studies on rat retina: NMDA-induced loss of Thy-1 mRNA (neuroprotection); assay type: in vivo, Wistar rats; details: Thy-1 mRNA levels (relative to rhodopsin), PEG value taken as 100; topical 5 μl of 2% in 50% PEG bilaterally twice a day, 2 days before and 7 days after intravitreal NMDA
Description: The method described by Osborne N. N. et al. (2002) previously reported was used. Briefly, two groups of 16 Wistar rats (200-250 g) received either 5 μl doses of topical test compound (2% in 50% polyethylene glycol-PEG) or 5 μl of vehicle bilaterally twice a day for 2 days. On the third day N-methyl-D-aspartate (NMDA) (5 μl in sterile water) was injected intra-vitreally into a single eye of each animal. The other eye was injected with sterile water. The animals were treated then with test compound or vehicle for 7 days. The Thy-1 antigen is associated with ganglion cells and intraocular injections of NMDA cause a loss of Thy-1 mRNA. The rats were then killed and the retinas removed for mRNA analysis for Thy-1 antigen. Results are expressed as % value to the Thy-1 mRNA levels (relative to rhodopsin) of the treated groups, taking PEG value as 100.

[2] = system: IOP (Intraocular Pressure); assay: Studies of IOP (intraocular pressure) on rabbit; assay type: in vivo, New Zealand albino rabbits; details: IOP mmHg as % of PEG value (100); topical application of 2% test compound, measured 60 minutes after
Description: The method by Osborne N. N. et al. (2002) previously reported was used. Briefly, two groups of adult male New Zealand albino rabbits weighing 3-3.5 kg were used in the experiments. IOP was measured using a properly calibrated tonometer immediately after topical application of 1 drop of 0.4% benoxinate hydrochloride. The animals received a topical application of 2% of test compound or PEG and measures taken 60 minutes after. Results are expressed as % value to the IOP mmHg values of the treatment groups, taking PEG value as 100.

O=C(CCCC=CC[C@@H]1[C@@H](CC[C@@H](O)CCc2ccccc2)[C@H](O)C[C@@H]1O)Oc1ccc(-c2cc(=S)ss2)cc1 (stereo in doubt) [Compound Example 2, (5Z)-7-[(1R,2R,3R,5S)-3,5-dihydroxy-2-[(3R)-3-hydroxy-5-phenylpentyl]cyclopentyl]-5-heptenoic acid 4-(3H-1,2-dithiole-3-thione-5-yl)-phenyl ester]
NMDA effects (%) [1]: 52%
IOP values (%) [2]: 85%
